Converted amounts (≈) assume the structure as drawn. Square brackets hold non-standard residues; d marks the D form. Ends that are not written are not given here. Peptide text beside a SMILES is read from it. AEEA = NCCOCCOCC(=O)O
Legend:
[1] = Water solubility of peptides; assay type: physicochemical
Text: Both the peptide derivatives were synthetized using solid phase peptide synthesis protocols (SPPS) with Fmoc/OtBu strategy. After their purification by RP‐HPLC chromatography, peptides were characterized by ESI mass spectrometry (see Figure S8). The logP values, estimated using the ACD Lab ChemSketch software, predict the intrinsic water solubility of peptides. […] A diametric behaviour was noted using the organic solvent 1,1,1,3,3,3‐hexafluoro‐isopropan‐2‐ol (HFIP).[[11a], [12]] Indeed, in HFIP the peptide FYFCFYF is highly soluble (up to 200 mg/mL), whereas PEG8‐FYFCFYF is moderately soluble (up to 5 mg/mL). According to their different solubility, peptide solutions were prepared using two approaches: PEG8‐FYFCFYF solutions were prepared by a direct dissolution of the lyophilized powder in water, whereas FYFCFYF ones were obtained by dilution in water of a HFIP stock solution (100 mg/mL). […] Peptide concentration was then analytically quantified using UV‐Vis spectroscopy. Preliminarily, we evaluated the capability of both the peptides to aggregate in solution (at 2.0 mg/mL) using the Dynamic Light Scattering (DLS) technique. […] The formation of nanoarchitectures was further investigated by fluorescence spectroscopy. Despite the presence of four Phe residues in the peptides, their self‐assembling propensity cannot be evaluated by simply considering the Phe excimer formation. […]

[2] = Gelification, inverted test tube (CGC, gelation time, shelf stability, syneresis); assay type: physicochemical
Text: Interconnected fibers network can generate self‐supporting hydrogels as a consequence of additional physical cross‐linking phenomena or chemical modifications. In the specific case of peptide‐based HGs, these materials are formed by further entanglement of supramolecular fibrillary structures, which can be induced by increasing the total sample concentration, and as a consequence, the number of fibers and their mutual contacts.[21] During the preparation of FYFCFYF solutions, we observed a viscosity degree that increases proportionally to the peptide concentration. […] As reported in Figure S12, the critical gelation concentration (CGC) for FYFCFYF can be identified in the range 0.5 wt%<CGC<1.0 wt%. […] However, the characterization of others analogues of (FY)3 and PEG8‐(FY)3 [eg. (F‐Dopa)3 and (Nal‐Dopa)3 and their PEGylated versions PEG8‐(F‐Dopa)3 and PEG8‐(Nal‐Dopa)3] highlighted a diametrically opposed behavior respect to (FY)3.[10] All these evidences point out the importance of the hydrophilic/hydrophobic balance in the peptide sequence in the gelification process. Moreover, it is possible that the Cys side chain plays a role in the confinement and retention of water molecules in the gel. The stability of the FYFCFYF hydrogel (macroscopically evaluated in terms of homogeneity, opacity and reproducibility) and its capability to hold water (as difference between the weight of the matrix before and after an incubation in water overnight at room temperature) were evaluated by the swelling value q (See Equation (1)).[22] […] The shelf stability was also evaluated via inverted test tube. […]
The formation of an additional chemical network affects also on the CGC and swelling features. […] The efficiency of oxidation procedure was evaluated using the well‐assessed Ellman's test.[24] Ellman's reagent (5,5’‐dithio‐bis‐(2‐nitrobenzoic acid)) also known as DTNB, is a chromogenic compound used to quantify free sulfhydryl groups in solution. […] Thus, free thiol concentration can be indirectly determined by TNB UV‐Vis absorption at 412 nm. […]

| Molecule | solubility [1] [µg/mL] | shelf stability ([2]; hydrogel 1.0 wt%) [days] | shelf stability ([2]; hydrogel 1.5 wt%) | shelf stability ([2]; hydrogel 2.0 wt%) |
| --- | --- | --- | --- | --- |
| FYFCFYF-NH2 [FYFCFYF] | 240 | 20 | up to 40 days | up to 65 days |
| NCCOCCOCC(=O)NCCOCCOCC(=O)NCCOCCOCC(=O)NCCOCCOCC(=O)N[C@@H](Cc1ccccc1)C(=O)N[C@@H](Cc1ccc(O)cc1)C(=O)N[C@@H](Cc1ccccc1)C(=O)N[C@@H](CS)C(=O)N[C@@H](Cc1ccccc1)C(=O)N[C@@H](Cc1ccc(O)cc1)C(=O)N[C@@H](Cc1ccccc1)C(N)=O [PEG8‐FYFCFYF] (H-[AEEA][AEEA][AEEA][AEEA]FYFCFYF-NH2) | ~10000 (≈ 6.19 mM) |  |  |  |

From article PMC8596998, “The Introduction of a Cysteine Residue Modulates The Mechanical Properties of Aromatic‐Based Solid Aggregates and Self‐Supporting Hydrogels” (Chemistry (Weinheim an Der Bergstrasse, Germany), 2021)
